# Where two headings read alike, the source gives them in different places.
# Columns and labels:
# [1] = system: electrically evoked Ca^2+ transients in rat skinned fibers; test: Electrically evoked Ca2+ transients (EC coupling) in rat skinned skeletal muscle fibers; assay type: cell-based; details: field stimulation 1 Hz, 100 nM free Ca2+
# From the text: To test the potential impact of these compounds on excitation contraction coupling, we measured voltage-induced Ca^2+ transients in rat skeletal muscle fibers. To do this, we again used mechanically skinned fibers. Because the t-system reseals upon mechanical skinning, bathing the preparation in a K^+-based cytoplasmic solution (with a small amount of Na^+) allows the Na^+-K^+ pump to re-establish the normal membrane potential. EC coupling can be initiated by exciting the preparation with field pulses that generate action potentials in the t-system to trigger Ca^2+ release[52]–[54]. Ca^2+ release is tracked by imaging rhod-2 in the cytoplasm via confocal microscopy in line-scan mode, and quantitatively plotted in Fig. 5 (based on recordings such as shown in Supplementary Fig. 7). A major advantage of using skinned fibers is that known concentrations of RyR modulators can be added to the cytoplasm, as they were added in the “leak” experiments. With this approach, we found 1 and 10 μM myricetin reduced Ca^2+ transient peak amplitude by 12% (P = 0.0046) and 48% (P < 0.0001), respectively (Fig. 5 and Supplementary Fig. 7a). In the case of chloroxine, only addition of 100 μM led to a detectable 14% (P < 0.0001) reduction in the Ca^2+ transient peak amplitude (Fig. 5 and Supplementary Fig. 7b). Therefore, both compounds, have impact on Ca^2+ transients that is markedly lower than their effect on the t-tubule readout of RyR1 [Ca^2+] leak (Figs. 4 and 5).
# All experimental methods using rats were approved by The Animal Ethics Committee at The University of Queensland. Five month old Wistar rats (UQ Biological Resources, Brisbane) were euthanized by asphyxiation via CO2 exposure, and the extensor digitorum longus (EDL) were rapidly excised.
# Skinned rat fibers were prepared and bathed in a resting physiological solution containing 100 nM Ca^2+, 1 mM Mg^2+, 36 mM Na^+, 126 mM K^+, 1 mM EGTA, 90 mM HEPES, […], 10 mM creatine phosphate and 8 mM ATP (pH 7.4). The Ca^2+ sensitive dye rhod-2 was used to track cytosolic Ca^2+ transients when exposed to electrical stimulation. […]
# RyR1 [2] = molecular target: T1, RyR1 (Sus scrofa, UniProt P16960); test: F-FKBP binding to RyR1 by co-sedimentation with skeletal SR membranes; parameters: using co-sedimentation with pig skeletal and cardiac SR membranes; from tissue; host or cells: pig skeletal muscle (heavy SR membranes); species or system pig; details: RyR1, 10 μM Hit, 30 nM Ca2+, 5 mM GSSG or GSH
# T1 sequence (P16960 whole entry): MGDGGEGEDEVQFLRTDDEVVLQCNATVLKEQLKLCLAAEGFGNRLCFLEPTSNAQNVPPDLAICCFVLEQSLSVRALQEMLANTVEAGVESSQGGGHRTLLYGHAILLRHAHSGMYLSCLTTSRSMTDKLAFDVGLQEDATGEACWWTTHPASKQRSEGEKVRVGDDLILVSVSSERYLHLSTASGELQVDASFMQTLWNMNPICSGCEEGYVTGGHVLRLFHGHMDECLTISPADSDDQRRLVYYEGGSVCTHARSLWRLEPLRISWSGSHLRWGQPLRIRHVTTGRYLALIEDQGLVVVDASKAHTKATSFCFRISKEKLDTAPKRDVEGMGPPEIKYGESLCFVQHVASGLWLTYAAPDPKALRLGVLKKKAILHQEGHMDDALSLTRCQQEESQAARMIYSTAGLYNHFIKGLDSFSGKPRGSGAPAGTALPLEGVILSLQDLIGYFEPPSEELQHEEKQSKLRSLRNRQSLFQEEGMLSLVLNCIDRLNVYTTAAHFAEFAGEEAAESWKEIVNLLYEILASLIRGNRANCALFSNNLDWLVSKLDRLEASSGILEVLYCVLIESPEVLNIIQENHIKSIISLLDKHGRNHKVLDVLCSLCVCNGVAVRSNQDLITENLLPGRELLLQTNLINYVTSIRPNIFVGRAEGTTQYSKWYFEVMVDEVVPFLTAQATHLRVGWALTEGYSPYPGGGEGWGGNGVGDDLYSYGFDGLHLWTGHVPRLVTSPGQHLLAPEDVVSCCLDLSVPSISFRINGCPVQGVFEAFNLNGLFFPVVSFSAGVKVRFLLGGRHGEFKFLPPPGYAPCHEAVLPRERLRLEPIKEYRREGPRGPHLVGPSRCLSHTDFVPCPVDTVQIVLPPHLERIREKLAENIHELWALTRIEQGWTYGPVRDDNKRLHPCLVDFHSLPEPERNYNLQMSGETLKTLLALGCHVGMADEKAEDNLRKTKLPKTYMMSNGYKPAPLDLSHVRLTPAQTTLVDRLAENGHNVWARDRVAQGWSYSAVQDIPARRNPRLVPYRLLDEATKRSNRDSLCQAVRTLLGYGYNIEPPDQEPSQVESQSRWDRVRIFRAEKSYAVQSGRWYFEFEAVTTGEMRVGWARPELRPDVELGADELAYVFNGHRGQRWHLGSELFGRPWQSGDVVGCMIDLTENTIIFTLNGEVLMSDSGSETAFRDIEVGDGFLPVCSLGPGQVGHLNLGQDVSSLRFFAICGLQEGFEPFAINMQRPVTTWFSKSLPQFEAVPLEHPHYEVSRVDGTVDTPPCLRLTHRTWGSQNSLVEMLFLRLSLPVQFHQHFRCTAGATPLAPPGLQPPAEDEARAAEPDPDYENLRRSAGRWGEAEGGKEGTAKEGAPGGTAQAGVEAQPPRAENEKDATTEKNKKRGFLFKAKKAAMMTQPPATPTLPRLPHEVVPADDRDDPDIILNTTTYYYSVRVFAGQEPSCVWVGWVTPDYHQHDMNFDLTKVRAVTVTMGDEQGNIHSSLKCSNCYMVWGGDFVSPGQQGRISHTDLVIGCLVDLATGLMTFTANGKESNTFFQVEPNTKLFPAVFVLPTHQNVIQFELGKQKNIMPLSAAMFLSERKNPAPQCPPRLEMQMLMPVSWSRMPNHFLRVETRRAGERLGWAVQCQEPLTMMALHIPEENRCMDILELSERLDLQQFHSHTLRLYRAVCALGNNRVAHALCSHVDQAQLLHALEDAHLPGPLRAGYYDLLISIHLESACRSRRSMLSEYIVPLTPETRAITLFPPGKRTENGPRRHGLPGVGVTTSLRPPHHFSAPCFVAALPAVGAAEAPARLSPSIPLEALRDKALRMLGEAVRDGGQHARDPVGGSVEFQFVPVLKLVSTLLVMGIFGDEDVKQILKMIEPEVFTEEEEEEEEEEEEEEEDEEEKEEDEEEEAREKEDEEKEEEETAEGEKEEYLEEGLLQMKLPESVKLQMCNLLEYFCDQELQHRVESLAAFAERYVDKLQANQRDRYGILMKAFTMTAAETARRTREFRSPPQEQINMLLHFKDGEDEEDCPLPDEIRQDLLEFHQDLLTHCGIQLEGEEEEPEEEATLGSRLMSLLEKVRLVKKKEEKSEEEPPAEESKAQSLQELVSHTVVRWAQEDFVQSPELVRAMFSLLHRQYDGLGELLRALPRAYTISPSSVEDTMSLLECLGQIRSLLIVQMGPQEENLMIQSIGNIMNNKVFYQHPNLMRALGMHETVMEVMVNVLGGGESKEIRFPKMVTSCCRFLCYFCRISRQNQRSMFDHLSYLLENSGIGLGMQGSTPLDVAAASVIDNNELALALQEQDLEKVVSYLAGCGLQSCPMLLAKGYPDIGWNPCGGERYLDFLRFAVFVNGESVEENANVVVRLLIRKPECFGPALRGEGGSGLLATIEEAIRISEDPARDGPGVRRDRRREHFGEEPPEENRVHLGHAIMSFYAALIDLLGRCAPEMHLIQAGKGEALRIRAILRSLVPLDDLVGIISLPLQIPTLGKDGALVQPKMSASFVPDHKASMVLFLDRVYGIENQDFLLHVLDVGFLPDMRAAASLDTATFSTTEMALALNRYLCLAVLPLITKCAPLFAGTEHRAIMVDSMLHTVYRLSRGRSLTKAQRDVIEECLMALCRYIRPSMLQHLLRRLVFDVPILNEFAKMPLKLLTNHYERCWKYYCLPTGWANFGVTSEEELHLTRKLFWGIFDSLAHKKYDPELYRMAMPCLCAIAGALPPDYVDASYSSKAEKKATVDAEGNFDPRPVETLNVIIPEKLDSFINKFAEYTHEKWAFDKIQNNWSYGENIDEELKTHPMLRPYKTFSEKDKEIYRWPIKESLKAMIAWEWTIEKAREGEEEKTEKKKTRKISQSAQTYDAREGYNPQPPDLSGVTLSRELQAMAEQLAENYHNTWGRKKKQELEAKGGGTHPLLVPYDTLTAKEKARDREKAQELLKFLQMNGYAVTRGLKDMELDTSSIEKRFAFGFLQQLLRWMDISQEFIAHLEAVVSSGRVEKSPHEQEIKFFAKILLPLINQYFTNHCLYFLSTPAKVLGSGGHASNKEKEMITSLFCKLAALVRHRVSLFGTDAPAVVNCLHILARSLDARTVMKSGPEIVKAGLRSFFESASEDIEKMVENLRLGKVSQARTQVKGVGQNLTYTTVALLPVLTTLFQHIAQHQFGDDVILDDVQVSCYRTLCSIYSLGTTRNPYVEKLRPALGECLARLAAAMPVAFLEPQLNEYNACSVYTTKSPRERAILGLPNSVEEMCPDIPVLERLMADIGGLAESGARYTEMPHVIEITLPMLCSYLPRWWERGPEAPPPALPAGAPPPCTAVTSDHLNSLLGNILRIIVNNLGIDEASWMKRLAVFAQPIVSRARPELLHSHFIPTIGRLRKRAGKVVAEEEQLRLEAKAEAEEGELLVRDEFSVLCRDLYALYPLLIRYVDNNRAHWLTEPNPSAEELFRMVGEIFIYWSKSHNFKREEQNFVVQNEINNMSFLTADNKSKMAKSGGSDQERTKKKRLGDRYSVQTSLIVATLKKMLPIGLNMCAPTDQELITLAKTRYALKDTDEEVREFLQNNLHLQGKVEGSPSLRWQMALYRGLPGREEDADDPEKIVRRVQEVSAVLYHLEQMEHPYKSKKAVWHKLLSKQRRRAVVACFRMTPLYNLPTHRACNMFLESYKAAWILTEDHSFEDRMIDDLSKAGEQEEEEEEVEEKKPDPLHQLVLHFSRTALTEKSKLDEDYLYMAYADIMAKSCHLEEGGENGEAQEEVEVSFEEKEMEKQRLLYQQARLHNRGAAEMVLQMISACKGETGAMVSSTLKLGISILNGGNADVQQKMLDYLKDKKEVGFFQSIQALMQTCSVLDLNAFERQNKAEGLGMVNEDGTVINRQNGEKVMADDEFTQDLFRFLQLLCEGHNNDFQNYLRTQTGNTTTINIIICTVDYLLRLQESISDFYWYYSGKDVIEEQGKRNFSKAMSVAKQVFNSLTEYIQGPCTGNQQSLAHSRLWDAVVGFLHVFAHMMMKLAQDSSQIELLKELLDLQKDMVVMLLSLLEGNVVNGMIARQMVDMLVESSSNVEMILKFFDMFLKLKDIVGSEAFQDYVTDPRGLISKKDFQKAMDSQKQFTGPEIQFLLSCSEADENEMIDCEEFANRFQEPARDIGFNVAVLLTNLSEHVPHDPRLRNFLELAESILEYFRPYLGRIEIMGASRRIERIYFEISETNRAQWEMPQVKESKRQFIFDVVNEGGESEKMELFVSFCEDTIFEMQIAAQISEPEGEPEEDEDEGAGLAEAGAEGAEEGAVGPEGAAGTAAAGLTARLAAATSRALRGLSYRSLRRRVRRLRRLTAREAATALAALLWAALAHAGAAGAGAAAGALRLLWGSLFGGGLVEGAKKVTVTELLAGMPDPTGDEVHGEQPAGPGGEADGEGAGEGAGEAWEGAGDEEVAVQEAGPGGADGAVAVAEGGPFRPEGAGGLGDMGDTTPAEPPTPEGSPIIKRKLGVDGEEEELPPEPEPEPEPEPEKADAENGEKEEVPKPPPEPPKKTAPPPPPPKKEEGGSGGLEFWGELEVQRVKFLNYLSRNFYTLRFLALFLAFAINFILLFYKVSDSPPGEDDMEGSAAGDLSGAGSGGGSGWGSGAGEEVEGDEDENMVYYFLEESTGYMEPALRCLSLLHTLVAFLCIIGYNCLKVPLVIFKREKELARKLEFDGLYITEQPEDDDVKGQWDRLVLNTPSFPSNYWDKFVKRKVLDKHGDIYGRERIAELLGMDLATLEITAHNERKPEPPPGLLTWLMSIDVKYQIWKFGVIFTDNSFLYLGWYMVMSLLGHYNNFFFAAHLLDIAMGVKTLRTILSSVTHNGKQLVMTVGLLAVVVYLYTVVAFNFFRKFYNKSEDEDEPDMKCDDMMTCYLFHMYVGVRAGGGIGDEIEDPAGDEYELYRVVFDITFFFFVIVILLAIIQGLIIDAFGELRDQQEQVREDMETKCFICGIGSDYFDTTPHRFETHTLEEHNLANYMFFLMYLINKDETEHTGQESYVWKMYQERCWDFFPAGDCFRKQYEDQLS
# Protocol: The Hit-induced effect on FRET between D-FKBP and A-CaM most likely results from one or the combination of factors, including a shift in CaM and/or FKBP12.6 binding, and/or structure of the RyR complex that shifts the D-A distance. Under the same assay conditions as in the primary screen, we assessed the effect of 10 μM Hit on fluorescent FKBP12.6 (F-FKBP) binding to RyRs, using co-sedimentation with pig skeletal and cardiac SR membranes.
# Supplementary Fig. 3 Effect of HTS Hits on F-FKBP binding to a) RyR1 in skeletal HSR membranes, and b) RyR2
# in cardiac CSR membranes at 30 nM Ca2+ in the presence of 5 mM GSSG or GSH. Results are represented as individual
# data points and means ± SEM, n = 4-5. *P < 0.05 by 2-sided Student’s unpaired t-test. […]
# RyR1 [3] = molecular target: T1, RyR1; test: [3H]ryanodine binding to skeletal SR vesicles; assay type: biochemical, porcine; parameters: RyR1 in skeletal SR membranes, and RyR2 in cardiac SR membranes; from tissue; host or cells: porcine longissimus dorsi muscle (heavy SR vesicles)
# Protocol: To evaluate the functional impact of compounds identified through our FRET-based screen, we first used [^3H]ryanodine binding assays. The level of [^3H]ryanodine binding to RyRs in SR membranes is a well-established index of the RyR channel activity. Given the role of CaM binding in our FRET readout, we investigated whether CaM influences the functional effect of the Hit compounds by carrying out [^3H]ryanodine binding assays in the absence and presence of CaM (300 nM).
# Crude sarcoplasmic reticulum (CSR) vesicles were isolated from porcine longissimus dorsi muscle and porcine cardiac left ventricle tissue by differential centrifugation of homogenized tissue. HSR vesicles, which are enriched in RyR1, were isolated by fractionation of crude skeletal SR vesicles using a discontinuous sucrose gradient. All vesicles were flash-frozen and stored at −80 °C. Immediately prior to the fluorescence or [^3H]ryanodine binding studies described below, the SR vesicles were stripped of residual endogenous CaM by incubation with a peptide derived from the CaM binding domain of myosin light chain kinase, followed by sedimentation.
# In 96-well plates, HSR vesicles (1 mg/ml) and cardiac CSR vesicles (3 mg/mL) were pre-incubated with 0.02% DMSO or Hit compound, with or without 300 nM CaM, for 30 min at 22 °C in a solution containing 150 mM KCl, 5 mM GSSG, 1 µg/mL Aprotinin/Leupeptin, 1 mM EGTA, and 65 µM or 1.02 mM CaCl2 (as determined by MaxChelator to yield 30 nM or 30 μM of free Ca^2+, respectively), 0.1 mg/mL BSA and 20 mM K-PIPES (pH 7.0). Non-specific and maximal [^3H]ryanodine binding to SR were separately assessed by addition of 40 µM non-radioactively labeled ryanodine or 5 mM Adenylyl-imidodiphosphate, respectively. Such control samples were each distributed over 4 wells/plate. Binding of [^3H]ryanodine (10 and 15 nM for cardiac and skeletal SR, respectively) was determined after a 3-h incubation (37 °C) and filtration through grade GF/B Glass Microfiber filters (Brandel Inc., Gaithersburg, MD, US) using a Brandel Harvester. In 4 mL of Ecolite Scintillation cocktail (MP biomedicals, Solon, OH, USA), [^3H] on filter was counted using a Beckman LS6000 scintillation counter (Fullerton, CA).
# RyR1 [4] = molecular target: T1, RyR1; parameters: RyR1 in skeletal SR membranes; from tissue; host or cells: porcine longissimus dorsi muscle (heavy SR vesicles); method as in PMID 27760856; details: skeletal HSR, previous study; cited from earlier work
Compound,Reduction of Ca2+ transient peak amplitude ([1]; 1 μM compound) [%],Reduction of Ca2+ transient peak amplitude ([1]; 10 μM compound) [%],Decrease of F-FKBP binding (RyR1 [2]),"Maximum decrease in [3H]ryanodine binding (RyR1 [3]; 1 μM compound, 30 μM Ca2+)","Effect on [3H]ryanodine binding (RyR1 [3]; 20 μM compound, 30 nM Ca2+, only in the absence of CaM)","Effect on [3H]ryanodine binding (RyR1 [3]; 30 μM Ca2+, presence and absence of 0.3 μM CaM, 0-20 μM compound)","Decrease in [3H]ryanodine binding (RyR1 [3]; ≤ 10 μM compound, 30 nM Ca2+, with or without CaM) [%]",Reduction of Ca2+ transient peak amplitude ([1]; 100 μM compound) [%],Decrease in [3H]ryanodine binding (RyR1 [4]) [%]
O=c1c(O)c(-c2cc(O)c(O)c(O)c2)oc2cc(O)cc(O)c12 [myricetin],12,48,did not alter,~ 20%,dramatically increased,biphasic effect,> 50,,
Oc1c(Cl)cc(Cl)c2cccnc12 [chloroxine],,,,,,,,14,20
